Measured values published in patent US9505713B2, “High-purity sodium p-styrenesulfonate with excellent hue, method for producing the same, poly(sodium p-styrenesulfonate) with excellent hue using the same, and dispersant and synthetic starch for clothing finishing using the poly(sodium p-styrenesulfonate)” (TOSOH ORGANIC CHEMICAL CO., LTD., priority 2012, dated 2016).
Several values for one entry are separate records, joined by “and”; a condition that tells them apart may be missing. Equal values may be shown once.

How the values were obtained:
Format in all cases: physicochemical
[1] = Measurement of repose angle (fluidity of powder)
Procedure: <Measurement of Repose Angle>
(1) Instruments and Apparatus
1) On a dish, 80 g of a sample is naturally dropped through a funnel of the apparatus.
2) The vertical angle (a) of a circular cone formed on the dish is read with the protractor up to a digit of an integer.
3) This operation is repeated 3 times, and the average value of the vertical angle (a) of the circular cone is determined.
(§1) The repose angle is calculated by the following equation. […] A=(180−a)/2 wherein A is the repose angle (degrees) and a is the vertical angle (degrees) of the circular cone. <Measurement of Rate of Dissolution (Solubility in Water)>

[2] = Measurement of rate of dissolution (solubility in water); conditions: 25° C.
Procedure: as §1
In a 20-ml glass sample bottle (27 mm in outer diameter×55 mm in depth), 1.00 g of a sodium p-styrenesulfonate powder (wet powder containing impurities and water) was accurately weighed in a temperature-controlled room of 25° C., and thereafter, 9.00 g of ion-exchanged water was quickly added thereto. Then, the sample bottle was turned upside down with a period of one cycle per second, and the time before dissolution of sodium p-styrenesulfonate was visually judged.

[3] = Whiteness and yellowness of sodium p-styrenesulfonate powder with color-difference meter; conditions: sodium p-styrenesulfonate crystal powder
Procedure: <Measurement of Whiteness and Yellowness of Sodium p-Styrenesulfonate with Color-Difference Meter>
After a color-difference meter (manufactured by Nippon Denshoku Industries Co., Ltd., C-106) was switched on and stabilized for 30 minutes, a light projection lens (30 mm in diameter) and a sample stand (30 mm in diameter) were attached thereto, and standard adjustment was performed. In a cell, 3.0 g of a sample was weighed, and a weight of 1 kg was placed thereon for 30 seconds. Thereafter, it was confirmed that there were no space and no wrinkles at a bottom portion of the cell. Measurement was made with the color-difference meter to read the whiteness (WI value) and the yellowness (YI value).

[4] = APHA values of 15 wt % aqueous sodium p-styrenesulfonate and poly(sodium p-styrenesulfonate) solutions; conditions: 15 wt % aqueous solution of the monomer
Procedure: <Measurement of APHA values of Aqueous Sodium p-Styrenesulfonate and Aqueous Poly(Sodium p-Styrenesulfonate) Solutions>
After a color-difference meter (manufactured by Nippon Denshoku Industries Co., Ltd., C-106) was switched on and stabilized for 30 minutes, a measuring method was changed to transmission, and a light projection lens (30 mm in diameter) and a sample stand (30 mm in diameter) were attached thereto. A standard white plate and a 0-CAL plate were set, and zero calibration was performed. After water was poured in a square cell and standard calibration was performed, 15 wt % aqueous sodium p-styrenesulfonate solution and 15 wt % aqueous poly(sodium p-styrenesulfonate) solution samples were each transferred into the square cell, and set, followed by reading the APHA values (converted from a calibration curve prepared by using standard solutions having APHA values of 0 to 500).

[5] = Measurement of particle size distribution (laser diffraction/scattering, Microtrack HRA)
Procedure: <Measurement of Particle Size Distribution>
In a 30-ml glass sample bottle, 0.55 g of a sample and 15.0 g of isopropanol were collected, and treated with an ultrasonic washer for 4 minutes while keeping the temperature at 25° C. or less to prepare a slurry. Thereafter, the particle size (median diameter) distribution was measured under the following conditions, using a laser diffraction/scattering type particle size analyzer, Microtrack HRA (manufactured by Nikkiso Co., Ltd.).
Particle transparency=Transp
Particle refractive Index=1.55
Fluid refractive Index=1.38

[6] = sodium p-styrenesulfonate powder, Table 1, smaller = better fluidity
[7] = 1.00 g powder in 9.00 g ion-exchanged water, Table 1
[8] = sodium p-styrenesulfonate powder, Table 1
[9] = before purification, Table 2, 1.00 g in 9.00 g water
[10] = listed as sodium p-styrenesulfonate B
[11] = listed as sodium p-styrenesulfonate A
[12] = after purification, Table 2, 1.00 g in 9.00 g water

SMILES | Repose angle [1, 6] [deg] | Rate of dissolution (dissolution time in water) [2, 7] [s] | Whiteness (WI value) [3] | Yellowness (YI value) [3] | Solution APHA value (hue of sodium p-styrenesulfonate) [4] | Median diameter [5, 8] | Small particles less than 10.00 μm [5, 8] [%] | Repose angle ([1]; before purification, Table 2) [deg] | Rate of dissolution (dissolution time in water) [2, 9] [s] | Median diameter ([5]; before purification, Table 2) | Small particles less than 10.00 μm ([5]; before purification, Table 2) [%] | also measured
C=Cc1ccc(S(=O)(=O)[O-])cc1.[Na+] [Example 5, sodium p-styrenesulfonate] | 59 | 130 | 95.0 | 7.5 | 80 | 18.6 μm | 14.3 |  |  |  |  | 
C=Cc1ccc(S(=O)(=O)[O-])cc1.[Na+] [Example 7, sodium p-styrenesulfonate] |  |  |  |  |  |  |  | 43 | 200 | 110 μm and 110.0 μm | 0.0 | 
C=Cc1ccc(S(=O)(=O)[O-])cc1.[Na+] [Example 1, sodium p-styrenesulfonate] | 46 | 165 | 95.7 | 5.8 | 30 | 81 μm and 81.0 μm | 0.5 |  |  |  |  | 
C=Cc1ccc(S(=O)(=O)[O-])cc1.[Na+] [Example 8, sodium p-styrenesulfonate] |  |  |  |  |  |  |  | 51 | 140 | 37 μm and 37.0 μm | 3.1 | 
C=Cc1ccc(S(=O)(=O)[O-])cc1.[Na+] [Comparative Example 4, sodium p-styrenesulfonate] | 60 | 126 | 93.0 | 10.1 | 120 | 20.6 μm | 14.3 |  |  |  |  | 
C=Cc1ccc(S(=O)(=O)[O-])cc1.[Na+] [Example 6, sodium p-styrenesulfonate] |  |  |  |  |  |  |  | 47 | 160 | 63.1 μm | 1.5 | 
C=Cc1ccc(S(=O)(=O)[O-])cc1.[Na+] [Comparative Example 8, sodium p-styrenesulfonate] |  |  |  |  |  |  |  | 45 | 270 | 160 μm and 160.0 μm | 0.0 | 
C=Cc1ccc(S(=O)(=O)[O-])cc1.[Na+] [Example 2, sodium p-styrenesulfonate] | 49 | 155 | 95.5 | 2.9 | 15 | 63 μm and 63.0 μm | 2.0 |  |  |  |  | 
C=Cc1ccc(S(=O)(=O)[O-])cc1.[Na+] [Comparative Example 6, sodium p-styrenesulfonate] | 59 | 122 | 91.0 | 16.0 | 200 | 21.3 μm | 12.7 |  |  |  |  | Whiteness (WI value) [3, 10]: 91.0; Yellowness (YI value) [3, 10]: 16.0; Solution APHA value (hue of sodium p-styrenesulfonate) [4, 10]: 200
C=Cc1ccc(S(=O)(=O)[O-])cc1.[Na+] [Comparative Example 3, sodium p-styrenesulfonate] | 59 | 123 | 93.5 | 12.5 | 150 | 21.5 μm | 12.1 |  |  |  |  | 
C=Cc1ccc(S(=O)(=O)[O-])cc1.[Na+] [Comparative Example 1, sodium p-styrenesulfonate] | 60 | 132 | 90.2 | 16.5 | 220 | 20.2 μm | 12.6 |  |  |  |  | Whiteness (WI value) [3, 11]: 90.2; Yellowness (YI value) [3, 11]: 16.5; Solution APHA value (hue of sodium p-styrenesulfonate) [4, 11]: 220
C=Cc1ccc(S(=O)(=O)[O-])cc1.[Na+] [Comparative Example 9, sodium p-styrenesulfonate] |  |  |  |  |  |  |  | 59 | 127 | 22.0 μm | 12.5 | Repose angle ([1]; after purification, Table 2): 58 deg; Rate of dissolution (dissolution time in water) [2, 12]: 130 s; Median diameter ([5]; after purification, Table 2): 25.1 μm; Small particles less than 10.00 μm ([5]; after purification, Table 2): 1.6%
C=Cc1ccc(S(=O)(=O)[O-])cc1.[Na+] [Example 9, sodium p-styrenesulfonate] |  |  |  |  |  |  |  |  |  |  |  | Repose angle ([1]; after purification, Table 2): 50 deg; Rate of dissolution (dissolution time in water) [2, 12]: 130 s; Median diameter ([5]; after purification, Table 2): 48 μm and 48.0 μm; Small particles less than 10.00 μm ([5]; after purification, Table 2): 2.5%
C=Cc1ccc(S(=O)(=O)[O-])cc1.[Na+] [Comparative Example 7, sodium p-styrenesulfonate] |  |  |  |  |  |  |  | 59 | 130 | 19.8 μm | 13.6 | Repose angle ([1]; after purification, Table 2): 58 deg; Rate of dissolution (dissolution time in water) [2, 12]: 128 s; Median diameter ([5]; after purification, Table 2): 22.3 μm; Small particles less than 10.00 μm ([5]; after purification, Table 2): 3.1%
